Experimental data from publication PMC10415228 (Saudi Pharmaceutical Journal : SPJ, 2023).
In brackets after ≈: the same amount, converted by molar mass.

System: trypsin (serine protease)
Assay: serine protease
Format: biochemical

O=c1c(O)c(-c2ccc(O)c(O)c2)oc2cc(O)cc(O)c12 [Quercetin] showed an IC50 of 295.44 µg/mL (≈ 978 µM).
